In patent publication US20080182893A1, “Anti-Atherogenic Composition” (SAN-EI GEN F.F.I., INC., priority 2005, published 2008):

Tested on: ApoE-KO mice
Test: Test Example 2: influence of EMIQ and QC on atherosclerosis, thoracic-abdominal aortic lesion area
Format: in vivo
Conditions: low dose 33 μmol/kg in feed, 14 weeks, versus control group (G1), FIG. 2
Procedure: The EMIQ prepared in Preparation Example 2 and the QC prepared in Preparation Example 3 were orally administered for 14 weeks to ApoE-KO mice in order to elucidate the atherosclerosis progression inhibiting effect of these substances. The atherosclerosis progression inhibiting effect was evaluated based on the atherosclerotic lesion area rate (%) at the thoracic-abdominal aorta of the ApoE-KO mice.
Specifically, before the test the test animals (ApoE-KO mice) were housed for 11 days for environmental acclimation and were then assigned, taking into consideration the body weight and total serum cholesterol (T-cho value), into the following four groups (8 animals in each group) in a completely randomized design using a group assignment system (Statlight #11 Group Assignment, Yukms Co., Ltd., Tokyo): the control group (a group not receiving either substance, G1), a group receiving quercetin admixed in the feed at 33 μmol/kg (low-dose QC group, G2), a group receiving EMIQ admixed in the feed at 33 μmol/kg (low-dose EMIQ group, G3), and a group receiving EMIQ admixed in the feed at 330 μmol/kg (high-dose EMIQ group, G4). […]

Structure (SMILES): O=c1c(O)c(-c2ccc(O)c(O)c2)oc2cc(O)cc(O)c12 [QC, quercetin]
- thoracic-abdominal aortic atherosclerotic lesion area rate (%): no difference
